Data published in US8044037B2, “Modified phosphocalcic compound, injectable composition containing same” (Centre National de la Recherche Scientifique, priority 2002, dated 2011).

Test system: rabbit osteoclast model (osteoclast resorption)
Test: Supernatants of incubated CDA samples tested in rabbit osteoclast model (FIG. 6)
Type: cell-based
Details: supernatant after 96 hours at 37° C. (200 mg in 5 ml culture medium) or 10^−6 M zoledronate solution; pure, diluted 10-, 100- and 1000-fold
Protocol: Several samples of CDA (200 mg) modified by adding zoledronate in accordance with the process of example 1 and several samples of unmodified CDA were incubated in 5 ml of culture medium at 37° C. After incubation for 96 hours, the various supernatants were collected and used pure, diluted 10-fold, 100-fold and 1000-fold in a rabbit osteoclast model.
The results are represented in FIG. 6, in which the percentage of resorption R is indicated on the y-axis, the conditions being indicated on the x-axis. Among the conditions: • “vehicle” means the culture medium alone • “pure CDA” means the supernatant derived from the incubation of pure CDA in the culture medium; “CDA 1/10”, “CDA 1/100” and “CDA 1/1000” mean, respectively, the solution referred to above and diluted to 1/10, 1/100 and 1/1000 • “pure zo” means a 10^−6 M solution of zoledronate in the culture medium, “zo 1/10”, “zo 1/100” and “zo 1/1000” mean, respectively, the solution referred to above and diluted to 1/10, 1/100 and 1/1000 • “pure CDAzo” means the supernatant derived from the incubation of zoledronate-containing CDA in the culture medium, and “CDAzo 1/10”, “CDAzo 1/100” and “CDAzo 1/1000” mean, respectively, the solution referred to above and diluted to 1/10, 1/100 and 1/1000.

SMILES: O=P(O)(O)C(O)(Cn1ccnc1)P(=O)(O)O [zoledronate]
- effect on osteoclast resorption (percentage of resorption R, FIG. 6): inhibits resorption according to a dose/effect relationship
